Data on 31 compounds can be found in patent publication US7217730B2, “Method for the use of pyranoindole derivatives to treat infection with Hepatitis C virus” (Wyeth, priority 2002, dated 2007).

The target in experiment [1] is BB7 (RNA-dependent RNA polymerase hepatitis C virus protein sequence derived from HCV replicon) (Hepatitis C virus genotype 1b, UniProt Q9WMX2). Put plainly: Hepatitis C polymerase inhibition, BB7 sequence. The note with it: Table 1B. It counts as biochemical.
Experiment [2] deals with T1, NS5B from the BK strain (genotype 1b) (Hepatitis C virus genotype 1b, UniProt P26663).
T1 construct: NS5B from the BK strain (genotype 1b) is expressed in E. coli as a protein in which the 21 C-terminal amino acids are replaced; made in house; host or cells: E. coli
T1 sequence (P26663 2420-2989): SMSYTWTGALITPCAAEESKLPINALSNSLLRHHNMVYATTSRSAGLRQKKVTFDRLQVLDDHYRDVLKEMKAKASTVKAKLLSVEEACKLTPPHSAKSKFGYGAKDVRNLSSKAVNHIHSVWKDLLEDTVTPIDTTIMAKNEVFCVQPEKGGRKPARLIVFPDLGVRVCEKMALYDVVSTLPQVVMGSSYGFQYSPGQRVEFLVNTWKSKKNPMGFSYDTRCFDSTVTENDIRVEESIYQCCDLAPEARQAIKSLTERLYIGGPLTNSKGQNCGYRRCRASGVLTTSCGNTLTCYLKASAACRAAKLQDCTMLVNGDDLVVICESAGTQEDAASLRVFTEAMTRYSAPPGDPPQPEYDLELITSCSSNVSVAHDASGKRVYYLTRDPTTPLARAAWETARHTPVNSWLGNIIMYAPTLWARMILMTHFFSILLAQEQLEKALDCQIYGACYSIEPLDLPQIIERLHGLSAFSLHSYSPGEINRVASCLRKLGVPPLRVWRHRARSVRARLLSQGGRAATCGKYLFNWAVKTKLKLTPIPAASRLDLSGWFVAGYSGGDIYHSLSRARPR
Put plainly: Hepatitis C polymerase inhibition, NS5B BK strain, 33P-GTP filter assay. The class given is biochemical. As to conditions: Table 1B; NS5B BK strain; read-out: BK IC50. In short, it runs like this: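 Radiolabelled RNA synthesis was measured by filter capture and scintillation counting after EDTA stop. His-tagged, C-terminally truncated (Δ21) genotype 1b BK NS5B from E. coli, pre-exposed to compound for 15 min, copied a self-primed RNA template (~3 nM) with α-[33P]-GTP for 2 h at room temperature.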

By IC50 is commonly meant the concentration that inhibits the measured activity by half.

BB7 (RNA-dependent RNA polymerase hepatitis C virus protein sequence derived from HCV replicon), sequence (Q9WMX2 2420-3010): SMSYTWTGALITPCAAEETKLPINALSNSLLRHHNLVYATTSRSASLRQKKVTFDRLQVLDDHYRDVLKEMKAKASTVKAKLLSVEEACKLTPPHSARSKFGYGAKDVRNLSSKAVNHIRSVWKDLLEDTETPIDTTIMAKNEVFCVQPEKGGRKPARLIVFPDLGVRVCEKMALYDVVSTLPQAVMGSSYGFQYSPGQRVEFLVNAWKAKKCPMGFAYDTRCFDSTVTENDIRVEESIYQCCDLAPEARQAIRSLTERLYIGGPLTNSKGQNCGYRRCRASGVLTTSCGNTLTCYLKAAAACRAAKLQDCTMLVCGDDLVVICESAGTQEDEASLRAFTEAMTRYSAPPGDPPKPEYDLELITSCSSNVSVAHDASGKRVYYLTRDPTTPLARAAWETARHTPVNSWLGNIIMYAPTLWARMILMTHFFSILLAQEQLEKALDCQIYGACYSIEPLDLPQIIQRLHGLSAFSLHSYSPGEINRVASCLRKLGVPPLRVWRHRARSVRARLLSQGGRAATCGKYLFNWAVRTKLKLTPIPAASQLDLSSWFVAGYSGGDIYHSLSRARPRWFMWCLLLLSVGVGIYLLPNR

In the case of `CSCC1(CC(=O)O)OCCc2c1[nH]c1c(C)ccc(C#N)c21` (centres unmarked) [Example 282, (5-cyano-1-methylthiomethyl-8-methyl-1,3,4,9-tetrahydropyrano[3,4-b]indol-1-yl)acetic acid], the 50% inhibitory concentration (IC50) was determined as 22 µM in experiment [1] and 13 µM in experiment [2].
For `Cc1ccc(Cl)c2c3c([nH]c12)C(CC(=O)O)(C1CCC1)OCC3` (centres unmarked) [Example 259, (5-chloro-1-cyclobutyl-8-methyl-1,3,4,9-tetrahydropyrano[3,4-b]indol-1-yl)acetic acid] the same measures were 1.6 µM and 0.5 µM.
For `CC[C@H](C)C1(CC(=O)O)OCCc2c1[nH]c1c(Cl)ccc(C#N)c21` (mixture of isomers) [Example 324] the same measures were 0.35 µM and 0.2 µM.
For “[5-cyano-1-(1-ethylethyl)-8-methyl-1,3,4,9-tetrahydropyrano[3,4-b]indol-1-yl]acetic acid [Example 294]” the same measures were above 30 µM and above 30 µM.
As to `O=C(O)CC1(C2CCCC2)OCCc2c1[nH]c1c(F)ccc(C(F)(F)F)c21` (centres unmarked) [Example 270, (1-cyclopentyl-8-fluoro-5-trifluoromethyl-1,3,4,9-tetrahydropyrano[3,4-b]indol-1-yl)acetic acid], the IC50 worked out at 17 µM in experiment [1] and 20 µM in experiment [2].
The like results for `CC[C@H](C)[C@]1(CC(=O)O)OCCc2c1[nH]c1c(Cl)ccc(C#N)c21` [Example 326, (1S,10S)-[8-Chloro-5-cyano-1-(1-methylpropyl)-1,3,4,9-tetrahydropyrano[3,4-b]indol-1-yl]acetic acid] were, in that order, 9.4 µM and 6.5 µM.
The like results for `COCCC1(CC(=O)O)OCCc2c1[nH]c1c(F)ccc(C#N)c21` (centres unmarked) [Example 304, [5-cyano-8-fluoro-1-(2-methoxyethyl)-1,3,4,9-tetrahydropyrano[3,4-b]indol-1-yl]acetic acid] were, in that order, above 30 µM and above 30 µM.
The like results for `N#Cc1ccc(Cl)c2[nH]c3c(c12)CCOC3(CC(=O)O)C1CCC1` (centres unmarked) [Example 327, (8-chloro-5-cyano-1-cyclobutyl-1,3,4,9-tetrahydropyrano[3,4-b]indol-1-yl)acetic acid] were, in that order, 1.7 µM and 0.8 µM.
Regarding `CC[C@H](C)C1(CC(=O)O)OCCc2c1[nH]c1c(C)ccc(Cl)c21` (mixture of isomers) [Example 261, (1R*,10S)-[5-chloro-8-methyl-1-(1-methylpropyl)-1,3,4,9-tetrahydropyrano[3,4-b]indol-1-yl]acetic acid], the IC50 in experiment [1] is 0.9 µM; in experiment [2] it was 0.4 µM.
The like results for `Cc1ccc(C(F)(F)F)c2c3c([nH]c12)C(CC(=O)O)(C1CC1)OCC3` (centres unmarked) [Example 274, (1-cyclopropyl-8-methyl-5-trifluoromethyl-1,3,4,9-tetrahydropyrano[3,4-b]indol-1-yl)acetic acid] were, in that order, above 26 µM and 9.3 µM.
The like results for `CCCC1(CC(=O)O)OCCc2c1[nH]c1c(C)ccc([N+](=O)[O-])c21` (centres unmarked) [Example 298, (8-methyl-5-nitro-1-propyl-1,3,4,9-tetrahydropyrano[3,4-b]indol-1-yl)acetic acid] were, in that order, 0.5 µM and 0.3 µM.
Consider `Cc1ccc(C#N)c2c3c([nH]c12)[C@](CC(=O)O)(C1CCC1)OCC3` [Example 286, (1S)-(5-cyano-1-cyclobutyl-8-methyl-1,3,4,9-tetrahydropyrano[3,4-b]indol-1-yl)acetic acid], for which the IC50 in experiment [1] and in experiment [2] was above 30 µM throughout.
As to `O=C(O)CC1(C2CCC2)OCCc2c1[nH]c1ccc(Cl)c(Cl)c21` (centres unmarked) [Example 235, (5,6-dichloro-1-cyclobutyl-1,3,4,9-tetrahydropyrano[3,4-b]indol-1-yl)acetic acid], the IC50 in experiment [1] came to 5.4 µM; in experiment [2], 5.2 µM.
For `Cc1ccc(C#N)c2c3c([nH]c12)C(CC(=O)O)(C1CC1)OCC3` (centres unmarked) [Example 283, (5-cyano-1-cyclopropyl-8-methyl-1,3,4,9-tetrahydropyrano[3,4-b]indol-1-yl)acetic acid] the same measures were above 27 µM and 15 µM.
For `CCCOc1cc(C#N)c2c3c([nH]c2c1C)[C@](CCC)(CC(=O)O)OCC3` [Example 361, (1S)-(5-cyano-8-methyl-7-propoxy-1-propyl-1,3,4,9-tetrahydro-pyrano[3,4-b]indol-1-yl)-acetic acid] the same measures were 0.77 µM and 1.8 µM.
The like results for `CC[C@H](C)[C@@]1(C(=O)O)OCCc2c1[nH]c1c(F)ccc(C#N)c21` (racemic) [Example 348, (1R*,10S*)-[5-cyano-8-fluoro-1-(1-methylpropyl)-1,3,4,9-tetrahydropyrano[3,4-b]indol-1-yl]carboxylic acid] were, in that order, above 30 µM and above 30 µM.
For the compound `CCCC1(C(=O)O)OCCc2c1[nH]c1c(Cl)ccc(C(F)(F)F)c21` (centres unmarked) [Example 331, (8-chloro-5-trifluoromethyl-1-propyl-1,3,4,9-tetrahydropyrano[3,4-b]indol-1-yl)carboxylic acid], the IC50 in experiment [1] is 2.5 µM; in experiment [2] it was 0.5 µM.
`N#Cc1ccc(F)c2[nH]c3c(c12)CCOC3(CC(=O)O)C1CC1` (centres unmarked) [Example 306, (5-cyano-1-cyclopropyl-8-fluoro-1,3,4,9-tetrahydropyrano[3,4-b]indol-1-yl)acetic acid]: the IC50 in experiment [1] and in experiment [2] was above 30 µM in each case.
Turning to `CC[C@@H](C)[C@@]1(C(=O)O)OCCc2c1[nH]c1c(C)ccc(C#N)c21` (racemic) [Example 336, (1R*,10R*)-[5-cyano-8-methyl-1-(1-methylpropyl)-1,3,4,9-tetrahydropyrano[3,4-b]indol-1-yl]carboxylic acid], the IC50 in experiment [1] came to 8.7 µM; in experiment [2] it was 4.7 µM.
The like results for `CCCC1(CC(=O)O)OCCc2c1[nH]c1c(C)c(OCc3cccc(F)c3)cc(C#N)c21` (centres unmarked) [Example 367, [5-cyano-7-(3-fluoro-benzyloxy)-8-methyl-1-propyl-1,3,4,9-tetrahydro-pyrano[3,4-b]indol-1-yl]acetic acid] were, in that order, 0.09 µM and 0.08 µM.
On to “(8-cyano-1-cyclobutyl-5-trifluoromethyl-1,3,4,9-tetrahydropyrano[3,4-b]indol-1-yl)acetic acid [Example 277]”, for which the figures for the half-maximal inhibitory concentration (IC50) in experiment [1] and in experiment [2] were 6.2 µM and 2.6 µM, respectively.
The like results for `CCCC1(C(=O)O)OCCc2c1[nH]c1c(Cl)ccc(C#N)c21` (centres unmarked) [Example 341, (8-chloro-5-cyano-1-propyl-1,3,4,9-tetrahydropyrano[3,4-b]indol-1-yl)carboxylic acid] were, in that order, 3.6 µM and 1.7 µM.
For `CCC(C)C1(CC(=O)O)OCCc2c1[nH]c1c(C(N)=O)ccc(C(F)(F)F)c21` [Example 278, (1R*,10S)-[8-aminocarbonyl-1-(1-methylpropyl)-5-trifluoromethyl-1,3,4,9-tetrahydropyrano[3,4-b]indol-1-yl]acetic acid] the same measures were 23 µM and 15 µM.
Consider `COCCC1(CC(=O)O)OCCc2c1[nH]c1ccc(Cl)c(Cl)c21` (centres unmarked) [Example 238, [5,6-dichloro-1-(2-methoxyethyl)-1,3,4,9-tetrahydropyrano[3,4-b]indol-1-yl]acetic acid], for which the IC50 in experiment [1] is above 30 µM; in experiment [2], 19 µM.
With `CC[C@H](C)[C@]1(CC(=O)O)OCCc2c1[nH]c1c(C)cc(F)c(C#N)c21` [Example 320, (1S,10S)-[5-cyano-6-fluoro-8-methyl-1-(1-methylpropyl)-1,3,4,9tetrahydropyrano[3,4-b]indol-1-yl]acetic acid], the IC50 in experiment [1] is 6 µM; in experiment [2] it was 2.9 µM.
Turning to `CC[C@@H](C)[C@@]1(CC(=O)O)OCCc2c1[nH]c1c(F)ccc(C#N)c21` (single isomer, unassigned) [Example 312, (1R*,10R*)-[5-cyano-8-fluoro-1-(1-methylpropyl)-1,3,4,9-tetrahydropyrano[3,4-b]indol-1-yl]acetic acid], the half-maximal inhibitory concentration (IC50) is above 30 µM in experiment [1] and 16 µM in experiment [2].
The like results for `CCOCC1(CC(=O)O)OCCc2c1[nH]c1c(Cl)ccc(Cl)c21` (centres unmarked) [Example 248, (5,8-dichloro-1-ethoxymethyl-1,3,4,9-tetrahydropyrano[3,4-b]indol-1-yl)acetic acid] were, in that order, above 30 µM and above 30 µM.
The like results for `CCCC1(CC(=O)O)OCCc2c1[nH]c1c(C)c(C(=O)N(C)C)cc(C#N)c21` (centres unmarked) [Example 358, (5-cyano-8-methyl-7-dimethylcarbamoyl-1-propyl-1,3,4,9-tetrahydro-pyrano[3,4-b]indol-1-yl)-acetic acid] were, in that order, 20 µM and 16 µM.
The like results for `CCCC1(CC(=O)O)OCCc2c1[nH]c1cc(Cl)c(Cl)cc21` (centres unmarked) [Example 240, (6,7-dichloro-1-propyl-1,3,4,9-tetrahydropyrano[3,4-b]indol-1-yl)acetic acid] were, in that order, 18 µM and 8.9 µM.
Consider “(8-fluoro-5-nitro-1-propyl-1,3,4,9-tetrahydropyrano[3,4-b]indol-1-yl)carboxylic acid [Example 352]”, for which the results for the IC50 in experiment [1] and in experiment [2] were 2.8 µM and 0.9 µM, respectively.
The like results for `Cc1ccc(C(F)(F)F)c2c3c([nH]c12)C(CC(=O)O)(C1CCC1)OCC3` (centres unmarked) [Example 275, (1-cyclobutyl-8-methyl-5-trifluoromethyl-1,3,4,9-tetrahydropyrano[3,4-b]indol-1-yl)acetic acid] were, in that order, 3.5 µM and 1.2 µM.
